Measurements taken from PubChem BioAssay (NCI).
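Following 48 hours of exposure in 96-well plates, responses at five concentrations were used to interpolate endpoints linearly. TGI is the concentration that stops growth completely.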

Assays:
Experiment in all cases: NCI tumour cell line growth inhibition, 48 h
[1] = tested on: SW-620 colon
[2] = tested on: RPMI-8226 leukemia
[3] = tested on: T-47D breast
[4] = tested on: CCRF-CEM leukemia
[5] = tested on: MCF7 breast
[6] = tested on: MDA-MB-435
[7] = tested on: SK-MEL-5 melanoma
[8] = tested on: SNB-19 CNS
[9] = tested on: CAKI-1 renal
[10] = tested on: SK-MEL-2 melanoma
[11] = tested on: PC-3 prostate
[12] = tested on: NCI-H23 lung
[13] = tested on: UO-31 renal
[14] = tested on: EKVX NSCLC
[15] = tested on: SF-268 CNS
[16] = tested on: 786-0 renal
[17] = tested on: SN12C renal
[18] = tested on: M14 melanoma
[19] = tested on: HOP-62 NSCLC
[20] = tested on: MDA-MB-231 breast
[21] = tested on: HCC-2998 colon
[22] = tested on: MDA-N
[23] = tested on: MALME-3M melanoma
[24] = tested on: OVCAR-4 ovarian
[25] = tested on: LOX IMVI melanoma
[26] = tested on: TK-10 renal
[27] = tested on: BT-549 breast
[28] = tested on: A498 renal
[29] = tested on: MOLT-4 leukemia
[30] = tested on: UACC-257 melanoma
[31] = tested on: SNB-75 CNS
[32] = tested on: U251 CNS
[33] = tested on: NCI-H522 lung
[34] = tested on: OVCAR-8 ovarian
[35] = tested on: HCT-116 colon
[36] = tested on: NCI-H226 lung
[37] = tested on: SK-OV-3 ovarian
[38] = tested on: OVCAR-3 ovarian
[39] = tested on: SF-539 CNS
[40] = tested on: A549 NSCLC
[41] = tested on: IGROV1 ovarian
[42] = tested on: UACC-62 melanoma
[43] = tested on: OVCAR-5 ovarian
[44] = tested on: SK-MEL-28 melanoma
[45] = tested on: KM12 colon
[46] = tested on: RXF 393 renal
[47] = tested on: HT29 colon
[48] = tested on: SR leukemia
[49] = tested on: ACHN renal
[50] = tested on: NCI/ADR-RES ovarian
[51] = tested on: HL-60(TB) leukemia
[52] = tested on: HS 578T breast
[53] = tested on: SF-295 CNS
[54] = tested on: COLO 205 colon
[55] = tested on: HOP-92 NSCLC
[56] = tested on: HCT-15 colon
[57] = tested on: DU-145 prostate
[58] = tested on: K-562 leukemia
[59] = tested on: NCI-H460 lung

Question: Which results are given for `Cc1cc(O)c(C=O)c2c1C(=O)Oc1c(CO)c(O)c3c(c1O2)C(O)OC3=O` (stereo not given)?
Answer: TGI [1]: > 100 µM; TGI [2]: 54.5 µM; TGI [3]: > 100 µM; TGI [4]: > 100 µM; TGI [5]: > 100 µM; TGI [6]: > 100 µM; TGI [7]: > 100 µM; TGI [8]: > 100 µM; TGI [9]: > 100 µM; TGI [10]: > 100 µM; TGI [11]: > 100 µM; TGI [12]: > 100 µM; TGI [13]: > 100 µM; TGI [14]: > 100 µM; TGI [15]: > 100 µM; TGI [16]: > 100 µM; TGI [17]: > 100 µM; TGI [18]: > 100 µM; TGI [19]: > 100 µM; TGI [20]: > 100 µM; TGI [21]: > 100 µM; TGI [22]: > 100 µM; TGI [23]: > 100 µM; TGI [24]: > 100 µM; TGI [25]: > 100 µM; TGI [26]: > 100 µM; TGI [27]: > 100 µM; TGI [28]: > 100 µM; TGI [29]: 94.1 µM; TGI [30]: > 100 µM; TGI [31]: > 100 µM; TGI [32]: > 100 µM; TGI [33]: > 100 µM; TGI [34]: > 100 µM; TGI [35]: > 100 µM; TGI [36]: > 100 µM; TGI [37]: > 100 µM; TGI [38]: > 100 µM; TGI [39]: > 100 µM; TGI [40]: > 100 µM; TGI [41]: > 100 µM; TGI [42]: > 100 µM; TGI [43]: > 100 µM; TGI [44]: > 100 µM; TGI [45]: > 100 µM; TGI [46]: > 100 µM; TGI [47]: > 100 µM; TGI [48]: 66.2 µM; TGI [49]: > 100 µM; TGI [50]: > 100 µM; TGI [51]: 79.2 µM; TGI [52]: > 100 µM; TGI [53]: > 100 µM; TGI [54]: > 100 µM; TGI [55]: > 100 µM; TGI [56]: > 100 µM; TGI [57]: > 100 µM

Question: With `Cc1cc(S(=O)(=O)n2ccnc2Oc2cccc(Cl)c2)c(SSc2cc(Cl)c(C)cc2S(=O)(=O)n2ccnc2Oc2cccc(Cl)c2)cc1Cl` as the compound, how does the TGI [1] read?
Answer: > 100 µM

Question: What about the TGI [2] of the same compound?
Answer: > 38.7 µM

Question: What about the TGI [3] of the same compound?
Answer: > 67.2 µM

Question: And the TGI [4]?
Answer: 10.7 µM

Question: And the TGI [5]?
Answer: > 29.3 µM

Question: And the TGI [6]?
Answer: 48.3 µM

Question: And the TGI [58]?
Answer: > 100 µM

Question: What about the TGI [7] of the same compound?
Answer: 23 µM

Question: What about the TGI [8] of the same compound?
Answer: > 100 µM

Question: What about the TGI [9] of the same compound?
Answer: > 43.5 µM

Question: What about the TGI [10] of the same compound?
Answer: 26.9 µM

Question: And the TGI [11]?
Answer: > 78.5 µM

Question: What about the TGI [12] of the same compound?
Answer: > 100 µM

Question: And the TGI [13]?
Answer: > 100 µM

Question: And the TGI [14]?
Answer: > 100 µM

Question: What about the TGI [15] of the same compound?
Answer: > 100 µM

Question: What about the TGI [16] of the same compound?
Answer: > 70 µM

Question: And the TGI [17]?
Answer: > 100 µM

Question: And the TGI [18]?
Answer: > 42 µM

Question: And the TGI [19]?
Answer: 38.7 µM

Question: What about the TGI [20] of the same compound?
Answer: > 51.3 µM

Question: And the TGI [21]?
Answer: 53 µM

Question: And the TGI [22]?
Answer: > 58.3 µM

Question: What about the TGI [23] of the same compound?
Answer: 41.1 µM

Question: What about the TGI [24] of the same compound?
Answer: > 100 µM

Question: What about the TGI [25] of the same compound?
Answer: > 100 µM

Question: And the TGI [26]?
Answer: > 100 µM

Question: And the TGI [27]?
Answer: 43 µM

Question: What about the TGI [28] of the same compound?
Answer: 84.5 µM

Question: And the TGI [29]?
Answer: 35 µM

Question: What about the TGI [30] of the same compound?
Answer: > 100 µM

Question: And the TGI [31]?
Answer: > 91.1 µM

Question: And the TGI [32]?
Answer: 12.4 µM

Question: And the TGI [34]?
Answer: > 41.8 µM

Question: What about the TGI [35] of the same compound?
Answer: > 60.7 µM

Question: And the TGI [36]?
Answer: 30.7 µM

Question: And the TGI [37]?
Answer: > 92.5 µM

Question: What about the TGI [38] of the same compound?
Answer: > 100 µM

Question: And the TGI [39]?
Answer: 37 µM

Question: What about the TGI [40] of the same compound?
Answer: > 100 µM

Question: And the TGI [41]?
Answer: > 100 µM

Question: What about the TGI [42] of the same compound?
Answer: > 53.2 µM

Question: And the TGI [43]?
Answer: > 100 µM

Question: And the TGI [44]?
Answer: > 100 µM

Question: And the TGI [45]?
Answer: > 100 µM

Question: And the TGI [46]?
Answer: 24.2 µM

Question: And the TGI [47]?
Answer: 48.5 µM

Question: What about the TGI [48] of the same compound?
Answer: > 100 µM

Question: What about the TGI [49] of the same compound?
Answer: > 32 µM

Question: And the TGI [50]?
Answer: 21.8 µM

Question: And the TGI [51]?
Answer: 20.9 µM

Question: And the TGI [52]?
Answer: 21.2 µM

Question: What about the TGI [53] of the same compound?
Answer: > 46.9 µM

Question: And the TGI [59]?
Answer: > 71.1 µM

Question: And the TGI [55]?
Answer: > 100 µM

Question: And the TGI [56]?
Answer: > 100 µM

Question: And the TGI [57]?
Answer: > 78.7 µM

Question: `N#CC1CNC(N)NC1N` (stereo not given) was tested. Which TGI [1] did it give?
Answer: > 100 µM

Question: And the TGI [2]?
Answer: > 100 µM

Question: What about the TGI [3] of the same compound?
Answer: > 100 µM

Question: What about the TGI [4] of the same compound?
Answer: 34.6 µM

Question: What about the TGI [5] of the same compound?
Answer: > 100 µM

Question: What about the TGI [6] of the same compound?
Answer: > 100 µM

Question: What about the TGI [58] of the same compound?
Answer: > 100 µM

Question: What about the TGI [7] of the same compound?
Answer: > 100 µM

Question: And the TGI [8]?
Answer: > 100 µM

Question: What about the TGI [9] of the same compound?
Answer: > 100 µM

Question: What about the TGI [10] of the same compound?
Answer: > 100 µM

Question: What about the TGI [11] of the same compound?
Answer: > 100 µM

Question: And the TGI [12]?
Answer: > 100 µM

Question: And the TGI [14]?
Answer: > 100 µM

Question: What about the TGI [15] of the same compound?
Answer: > 100 µM

Question: And the TGI [16]?
Answer: > 100 µM

Question: What about the TGI [17] of the same compound?
Answer: > 100 µM

Question: What about the TGI [18] of the same compound?
Answer: > 100 µM

Question: What about the TGI [19] of the same compound?
Answer: > 100 µM

Question: What about the TGI [20] of the same compound?
Answer: > 100 µM

Question: And the TGI [22]?
Answer: > 100 µM

Question: And the TGI [23]?
Answer: > 100 µM

Question: What about the TGI [24] of the same compound?
Answer: > 100 µM

Question: And the TGI [25]?
Answer: > 100 µM

Question: What about the TGI [26] of the same compound?
Answer: > 100 µM

Question: And the TGI [27]?
Answer: > 100 µM

Question: What about the TGI [28] of the same compound?
Answer: > 100 µM

Question: And the TGI [30]?
Answer: > 100 µM

Question: What about the TGI [31] of the same compound?
Answer: > 100 µM

Question: And the TGI [32]?
Answer: > 100 µM

Question: What about the TGI [33] of the same compound?
Answer: > 100 µM

Question: What about the TGI [34] of the same compound?
Answer: > 100 µM

Question: And the TGI [35]?
Answer: > 100 µM

Question: What about the TGI [36] of the same compound?
Answer: > 100 µM

Question: What about the TGI [37] of the same compound?
Answer: > 100 µM

Question: What about the TGI [38] of the same compound?
Answer: > 100 µM

Question: And the TGI [39]?
Answer: > 100 µM

Question: What about the TGI [40] of the same compound?
Answer: > 100 µM

Question: And the TGI [41]?
Answer: > 100 µM

Question: What about the TGI [42] of the same compound?
Answer: > 100 µM

Question: And the TGI [43]?
Answer: > 100 µM

Question: What about the TGI [44] of the same compound?
Answer: > 100 µM

Question: And the TGI [45]?
Answer: > 100 µM

Question: What about the TGI [46] of the same compound?
Answer: > 100 µM

Question: What about the TGI [47] of the same compound?
Answer: > 100 µM

Question: And the TGI [48]?
Answer: > 100 µM

Question: What about the TGI [49] of the same compound?
Answer: > 100 µM

Question: What about the TGI [50] of the same compound?
Answer: > 100 µM

Question: And the TGI [51]?
Answer: > 100 µM

Question: And the TGI [52]?
Answer: > 100 µM

Question: What about the TGI [53] of the same compound?
Answer: > 100 µM

Question: What about the TGI [54] of the same compound?
Answer: > 100 µM

Question: And the TGI [59]?
Answer: > 100 µM

Question: What about the TGI [55] of the same compound?
Answer: > 100 µM

Question: And the TGI [56]?
Answer: > 100 µM

Question: And the TGI [57]?
Answer: > 100 µM
